Reference: patent publication US20170008928A1, “NOVEL PEPTIDES AND PEPTIDE DERIVATIVES AND USES THEREOF” (Novo Nordisk A/S, priority 2015, published 2017)
Read-outs that look alike come from different tables or passages of the source. Starred links: 1 amine or outer side, 2 acyl side, 3 side chain; linkers in the order of their positions; H or OH if unused. Non-standard residues stand in square brackets, D forms with d. Residues, ends and D or L forms follow the SMILES beside them. *: point of attachment. Phe(4-CH2SO3H) = N[C@@H](Cc1ccc(CS(=O)(=O)O)cc1)C(=O)O; C20 diacid = O=C(O)CCCCCCCCCCCCCCCCCCC(=O)*; sY = N[C@@H](Cc1ccc(OS(=O)(=O)O)cc1)C(=O)O; C18 diacid = O=C(O)CCCCCCCCCCCCCCCCC(=O)*; γGlu = O=C(O)[C@H](CCC(=O)[*:2])N[*:1]; 1Nal = N[C@@H](Cc1cccc2ccccc12)C(=O)O; C14 diacid = O=C(O)CCCCCCCCCCCCC(=O)*; NMeF = CN[C@@H](Cc1ccccc1)C(=O)O; dNMeD = CN[C@H](CC(=O)O)C(=O)O; Nle = CCCC[C@H](N)C(=O)O; AEEA = NCCOCCOCC(=O)O

Legend:
[1] = biological target: T1, human cholecystokinin-1 receptor (CCK-1R) (Homo sapiens, UniProt P32238); test: In vitro receptor binding to CCK-1R, SPA displacement of [125I]-CCK-8s from plasma membranes
T1 construct: host or cells: 1321-N1 cells
T1 sequence (P32238 1-428): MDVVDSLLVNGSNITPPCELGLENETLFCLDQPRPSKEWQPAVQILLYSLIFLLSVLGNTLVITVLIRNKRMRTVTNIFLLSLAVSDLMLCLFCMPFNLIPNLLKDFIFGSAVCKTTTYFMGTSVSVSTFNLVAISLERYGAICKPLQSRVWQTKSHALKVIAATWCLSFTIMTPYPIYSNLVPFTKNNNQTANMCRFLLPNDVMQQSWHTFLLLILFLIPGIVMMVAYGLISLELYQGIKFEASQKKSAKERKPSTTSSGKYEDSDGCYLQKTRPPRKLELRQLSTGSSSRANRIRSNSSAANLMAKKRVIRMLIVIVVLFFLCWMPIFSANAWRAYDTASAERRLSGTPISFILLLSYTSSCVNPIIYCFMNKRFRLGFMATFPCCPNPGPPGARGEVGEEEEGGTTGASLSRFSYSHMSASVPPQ

[2] = biological target: T2, human cholecystokinin-2 receptor (CCK-2R) (Homo sapiens, UniProt P32239); test: In vitro receptor binding to CCK-2R, SPA displacement of [125I]-CCK-8s from plasma membranes
T2 construct: host or cells: 1321-N1 cells (plasma membranes prepared by Evotec AG Hamburg)
T2 sequence (P32239 1-447): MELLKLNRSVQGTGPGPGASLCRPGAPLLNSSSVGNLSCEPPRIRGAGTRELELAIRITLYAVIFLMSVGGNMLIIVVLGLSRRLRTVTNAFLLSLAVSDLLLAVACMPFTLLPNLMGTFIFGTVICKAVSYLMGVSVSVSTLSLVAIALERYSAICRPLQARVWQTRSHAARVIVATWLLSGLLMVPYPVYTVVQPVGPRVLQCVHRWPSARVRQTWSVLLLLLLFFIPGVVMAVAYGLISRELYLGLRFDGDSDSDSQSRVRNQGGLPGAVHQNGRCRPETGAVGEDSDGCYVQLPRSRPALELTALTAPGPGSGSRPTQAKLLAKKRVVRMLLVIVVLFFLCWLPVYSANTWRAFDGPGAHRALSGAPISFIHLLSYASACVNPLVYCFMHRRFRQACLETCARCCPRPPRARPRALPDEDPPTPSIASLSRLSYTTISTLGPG

[3] = biological target: T2, human cholecystokinin-2 receptor (CCK-2R); test: In vitro potency on CCK-2R, whole cell functional assay (IP1 accumulation, IP-One HTRF); format: cell-based
[4] = displacement of [125I]-CCK-8s, plasma membranes of 1321-N1 cells expressing CCK-1R, read-out: IC50 (CCK-1R)
[5] = displacement of [125I]-CCK-8s, plasma membranes of 1321-N1 cells expressing CCK-2R, highest dose tested 1×10^7 pM, read-out: IC50 (CCK-2R)
[6] = 1321-N1 cells stably expressing CCK-2R, IP1 accumulation, highest dose tested 1×10^6 pM, read-out: EC50 (CCK-2R)

Row | IC50 [1, 4] [nM] | IC50 [2, 5] [nM] | EC50 [3, 6] [nM] | SMILES | other results
1 | 0.13 | 1000 | 180 | CCCC[C@H](NC(=O)[C@H](Cc1ccc(OS(=O)(=O)O)cc1)NC(=O)[C@H](CC(=O)O)NC(=O)COCCOCCNC(=O)COCCOCCNC(=O)CC[C@H](NC(=O)CCCCCCCCCCCCCCCCC(=O)O)C(=O)O)C(=O)NCC(=O)N[C@@H](Cc1c[nH]c2ccccc12)C(=O)N[C@@H](CCCC)C(=O)N(C)[C@H](CC(=O)O)C(=O)N[C@@H](Cc1cccc2ccccc12)C(N)=O [Example 2, 2-[2-[2-[[2-[2-[2-[[(4S)-4-Carboxy-4-(17-carboxyheptadecanoylamino)butanoyl]amino]ethoxy]ethoxy]acetyl]amino]ethoxy]ethoxy]acetyl-Asp-sTyr-Nle-Gly-Trp-Nle-DMeAsp-1Nal-amide] ({C18 diacid-γGlu-AEEA-AEEA}-D[sY][Nle]GW[Nle][dNMeD][1Nal]-NH2) | –
2 | – | – | – | CCCC[C@H](NC(=O)[C@H](Cc1ccc(CS(=O)(=O)O)cc1)NC(=O)[C@H](CC(=O)O)NC(=O)COCCOCCNC(=O)COCCOCCNC(=O)CC[C@H](NC(=O)CCCCCCCCCCCCCCCCC(=O)O)C(=O)O)C(=O)NCC(=O)N[C@@H](Cc1c[nH]c2ccccc12)C(=O)N[C@@H](CCCC)C(=O)N(C)[C@H](CC(=O)O)C(=O)N(C)[C@@H](Cc1ccccc1)C(N)=O [Example 3, 2-[2-[2-[[2-[2-[2-[[(4S)-4-Carboxy-4-(17-carboxyheptadecanoylamino)butanoyl]amino]ethoxy]ethoxy]acetyl]amino]ethoxy]ethoxy]acetyl-Asp-Phe(4-sulfomethyl)-Nle-Gly-Trp-Nle-DMeAsp-MePhe-amide] ({C18 diacid-γGlu-AEEA-AEEA}-D[Phe(4-CH2SO3H)][Nle]GW[Nle][dNMeD][NMeF]-NH2) | IC50 [1]: 0.26 nM; IC50 [2]: > 10000 nM; EC50 [3]: > 1000 nM
3 | 0.072 | – | – | CCCC[C@H](NC(=O)[C@H](Cc1c[nH]c2ccccc12)NC(=O)CNC(=O)[C@H](CC(C)C)NC(=O)[C@H](Cc1ccc(OS(=O)(=O)O)cc1)NC(=O)[C@H](CC(=O)O)NC(=O)[C@H](CO)NC(=O)[C@H](CO)NC(=O)CNC(=O)[C@H](CO)NC(=O)[C@H](CO)NC(=O)CNC(=O)CCCCCCCCCCCCCCCCC(=O)O)C(=O)N(C)[C@H](CC(=O)O)C(=O)N(C)[C@@H](Cc1ccccc1)C(N)=O [Example 29, 17-Carboxyheptadecanoyl-Gly-Ser-Ser-Gly-Ser-Ser-Asp-sTyr-Leu-Gly-Trp-Nle-DMeAsp-MePhe-amide] ({C18 diacid}-GSSGSSD[sY]LGW[Nle][dNMeD][NMeF]-NH2) | CCK-1R binding selectivity (IC50 (CCK-2R)/IC50 (CCK-1R)) ([1]; ratio of binding IC50 values, >1 = preference for CCK-1R): 5100
4 | – | > 10000 | > 1000 | CCCC[C@H](NC(=O)[C@H](Cc1c[nH]c2ccccc12)NC(=O)CNC(=O)[C@H](CC(C)C)NC(=O)[C@H](Cc1ccc(CS(=O)(=O)O)cc1)NC(=O)[C@H](CC(=O)O)NC(=O)COCCOCCNC(=O)COCCOCCNC(=O)CC[C@H](NC(=O)CCCCCCCCCCCCC(=O)O)C(=O)O)C(=O)N(C)[C@H](CC(=O)O)C(=O)N(C)[C@@H](Cc1ccccc1)C(N)=O [Example 34, 2-[2-[2-[[2-[2-[2-[[(4S)-4-Carboxy-4-(13-carboxytridecanoylamino)butanoyl]amino]ethoxy]ethoxy]acetyl]amino]ethoxy]ethoxy]acetyl-Asp-Phe(4-sulfomethyl)-Leu-Gly-Trp-Nle-DMeAsp-MePhe-amide] ({C14 diacid-γGlu-AEEA-AEEA}-D[Phe(4-CH2SO3H)]LGW[Nle][dNMeD][NMeF]-NH2) | –
5 | – | > 10000 | > 1000 | CCCC[C@H](NC(=O)[C@H](Cc1c[nH]c2ccccc12)NC(=O)CNC(=O)[C@H](CC(C)C)NC(=O)[C@H](Cc1ccc(CS(=O)(=O)O)cc1)NC(=O)[C@H](CC(=O)O)NC(=O)COCCOCCNC(=O)COCCOCCNC(=O)CC[C@H](NC(=O)CCCCCCCCCCCCCCCCCCC(=O)O)C(=O)O)C(=O)N(C)[C@H](CC(=O)O)C(=O)N(C)[C@@H](Cc1ccccc1)C(N)=O [Example 35, 2-[2-[2-[[2-[2-[2-[[(4S)-4-Carboxy-4-(19-carboxynonadecanoylamino)butanoyl]amino]ethoxy]ethoxy]acetyl]amino]ethoxy]ethoxy]acetyl-Asp-Phe(4-sulfomethyl)-Leu-Gly-Trp-Nle-DMeAsp-MePhe-amide] ({C20 diacid-γGlu-AEEA-AEEA}-D[Phe(4-CH2SO3H)]LGW[Nle][dNMeD][NMeF]-NH2) | –
